The results in this text go back to US20230295157A1, “3-(1H-IMIDAZOL-2-YL)-2,3,8,8A-TETRAHYDROINDOLIZIN-5(1H)-ONE DERIVATIVES USEFUL AS FACTOR XIA INHIBITORS” (JANSSEN PHARMACEUTICA NV, priority 2020, published 2023).

One test addresses Factor XIa (Homo sapiens (Human), UniProt P03951). Briefly: Factor XIa inhibition assay (FLINT) utilizing a fluorophore-quencher pair peptide substrate. To be noted: 30 min preincubation, kinetic reads over 30 min, read-out: FXIa Kin Inh IC50. Type of test: biochemical. The method in brief:
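FXIa ([…]) preincubated 30 min with compound (11-point 3-fold dilution, top 100 nM, 2% DMSO), then 15 μM quenched FXI Arg146-based peptide added; Tris pH 7.5, CaCl2, BSA, CHAPS. Fluorescence 485/520 nm read kinetically every 5 min over 30 min at RT; IC50 by 4-parameter fit.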

The target of the next test is human plasma kallikrein (Homo sapiens (Human), UniProt P03952). Put plainly: Kallikrein inhibition assay (FLINT) utilizing a quenched AMC peptide substrate. Type of test: biochemical. To be noted: 30 min preincubation, kinetic reads over 30 min, Z-Gly-Pro-Arg-AMC substrate 50 μM; read-out: Kallikrein Kin Inh IC50. In short, it runs like this:
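Enzyme (2 nM final) pre-incubated 30 min at room temperature with compound (11-point, 3-fold, top 1 μM, 2% DMSO), then 50 μM Z-Gly-Pro-Arg-AMC added in Tris pH 7.5 buffer. Kinetic fluorescence 340/440 nm every 5 min over 30 min; IC50 from 4-parameter logistic fit.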

[1] abbreviates: 5Fam-KLTRAETV-K5Tamra substrate 15 μM.

The IC50 is the concentration that gives 50% inhibition.

Like-named read-outs stand apart in the source and are kept apart here. Bounds are passed on as bounds.

Factor XIa, sequence (P03951 388-625): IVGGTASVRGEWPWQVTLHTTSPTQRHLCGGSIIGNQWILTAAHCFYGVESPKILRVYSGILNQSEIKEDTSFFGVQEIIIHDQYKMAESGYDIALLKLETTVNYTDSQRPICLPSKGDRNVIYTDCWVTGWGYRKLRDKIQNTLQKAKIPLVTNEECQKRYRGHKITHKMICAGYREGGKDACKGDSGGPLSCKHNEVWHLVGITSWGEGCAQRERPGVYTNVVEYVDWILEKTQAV
Factor XIa, sequence (P03951 19-387 partner): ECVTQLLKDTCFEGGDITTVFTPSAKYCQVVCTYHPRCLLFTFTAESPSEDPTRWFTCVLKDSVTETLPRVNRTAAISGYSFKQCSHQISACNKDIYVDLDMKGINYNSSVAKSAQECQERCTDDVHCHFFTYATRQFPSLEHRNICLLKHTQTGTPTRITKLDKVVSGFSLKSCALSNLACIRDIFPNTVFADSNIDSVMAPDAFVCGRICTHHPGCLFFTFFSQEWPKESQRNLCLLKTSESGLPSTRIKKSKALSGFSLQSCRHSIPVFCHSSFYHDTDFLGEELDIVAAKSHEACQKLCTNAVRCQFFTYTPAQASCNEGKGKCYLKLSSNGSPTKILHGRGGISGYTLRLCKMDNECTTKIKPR
human plasma kallikrein, sequence (P03952 391-638): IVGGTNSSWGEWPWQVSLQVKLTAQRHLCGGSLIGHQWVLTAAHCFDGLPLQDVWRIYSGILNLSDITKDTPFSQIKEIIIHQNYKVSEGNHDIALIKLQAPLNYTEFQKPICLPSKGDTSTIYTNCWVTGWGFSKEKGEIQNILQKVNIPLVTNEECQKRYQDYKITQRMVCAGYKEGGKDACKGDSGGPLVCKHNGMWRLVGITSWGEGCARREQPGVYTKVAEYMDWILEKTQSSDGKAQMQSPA
human plasma kallikrein, sequence (P03952 20-390 partner): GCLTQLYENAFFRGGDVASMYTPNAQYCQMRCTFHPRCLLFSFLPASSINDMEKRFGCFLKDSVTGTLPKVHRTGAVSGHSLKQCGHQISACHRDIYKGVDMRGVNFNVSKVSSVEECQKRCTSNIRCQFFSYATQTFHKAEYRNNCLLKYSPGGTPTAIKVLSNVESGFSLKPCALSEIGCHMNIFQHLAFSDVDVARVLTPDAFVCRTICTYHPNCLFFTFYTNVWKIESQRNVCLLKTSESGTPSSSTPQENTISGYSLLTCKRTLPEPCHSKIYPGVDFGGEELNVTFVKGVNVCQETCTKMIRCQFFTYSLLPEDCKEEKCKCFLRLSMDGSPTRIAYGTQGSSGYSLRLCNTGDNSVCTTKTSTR

For `O=C1C=C(c2c(-n3cc(C(F)(F)F)nn3)ccc(Cl)c2F)C[C@H]2CC[C@@H](c3ncc(-c4ccc(CO)nc4Cl)[nH]3)N12` [Example 223, (3S,8aR)-7-(3-Chloro-2-fluoro-6-(4-(trifluoromethyl)-1H-1,2,3-triazol-1-yl)phenyl)-3-(5-(2-chloro-6-(hydroxymethyl)pyridin-3-yl)-1H-imidazol-2-yl)-2,3,8,8a-tetrahydroindolizin-5(1H)-one], the IC50 at Factor XIa (setting [1]) was found to be 15.9 nM; on human plasma kallikrein it was 138 nM.

Turning to `COc1n[nH]cc1-c1cnc([C@@H]2CC[C@@H]3CC(c4c(-n5cnnn5)ccc(Cl)c4F)=CC(=O)N32)[nH]1` [Example 227, (3S,8aR)-7-(3-chloro-2-fluoro-6-(1H-tetrazol-1-yl)phenyl)-3-(5-(3-methoxy-1H-pyrazol-4-yl)-1H-imidazol-2-yl)-2,3,8,8a-tetrahydroindolizin-5(1H)-one], the IC50 at Factor XIa (setting [1]) amounted to 3.5 nM; at human plasma kallikrein, 11.4 nM.

Turning to `NC(=O)c1ccc(-c2cnc([C@@H]3CC[C@H]4CC(c5c(-n6cnnn6)ccc(Cl)c5F)=CC(=O)N43)[nH]2)c(Cl)n1` [Example 228, 6-Chloro-5-(2-((3S,8aS)-7-(3-chloro-2-fluoro-6-(1H-tetrazol-1-yl)phenyl)-5-oxo-1,2,3,5,8,8a-hexahydroindolizin-3-yl)-1H-imidazol-5-yl)picolinamide], the IC50 on Factor XIa (setting [1]) was 18.8 nM; on human plasma kallikrein, 162 nM.

Take `NC(=O)c1ccc(-c2cnc([C@@H]3CC[C@@H]4CC(c5c(-n6cnnn6)ccc(Cl)c5F)=CC(=O)N43)[nH]2)c(Cl)n1` [Example 229, 6-Chloro-5-(2-((3S,8aR)-7-(3-chloro-2-fluoro-6-(1H-tetrazol-1-yl)phenyl)-5-oxo-1,2,3,5,8,8a-hexahydroindolizin-3-yl)-1H-imidazol-5-yl)picolinamide]: the IC50 at Factor XIa (setting [1]) stood at 54.9 nM; at human plasma kallikrein, 342 nM.

With `O=C1C=C(c2c(-n3cnnn3)ccc(Cl)c2F)C[C@H]2CC[C@@H](c3ncc(-c4c[nH]cc4C(F)(F)F)[nH]3)N12` [Example 230, (3S,8aR)-7-(3-Chloro-2-fluoro-6-(1H-tetrazol-1-yl)phenyl)-3-(5-(4-(trifluoromethyl)-1H-pyrrol-3-yl)-1H-imidazol-2-yl)-2,3,8,8a-tetrahydroindolizin-5(1H)-one], the IC50 is 0.4 nM on Factor XIa (setting [1]) and 11.1 nM at human plasma kallikrein.

Regarding `O=C1C=C(c2c(-n3cnnn3)ccc(Cl)c2F)C[C@H]2CC[C@@H](c3ncc(-c4c[nH]c(C(F)(F)F)n4)[nH]3)N12` [Example 231, (3S,8aR)-7-(3-Chloro-2-fluoro-6-(1H-tetrazol-1-yl)phenyl)-3-(2-(trifluoromethyl)-1H,3′H-[4,4′-biimidazol]-2′-yl)-2,3,8,8a-tetrahydroindolizin-5(1H)-one], the half-maximal inhibitory concentration (IC50) at Factor XIa (setting [1]) worked out at 37.1 nM; at human plasma kallikrein, 84.6 nM.

Regarding `NC(=O)c1cc(-c2cnc([C@@H]3CC[C@H]4CC(c5c(-n6cnnn6)ccc(Cl)c5F)=CC(=O)N43)[nH]2)ccc1F` [Example 232, 5-(2-((3S,8aS)-7-(3-Chloro-2-fluoro-6-(1H-tetrazol-1-yl)phenyl)-5-oxo-1,2,3,5,8,8a-hexahydroindolizin-3-yl)-1H-imidazol-5-yl)-2-fluorobenzamide], the IC50 on Factor XIa (setting [1]) is over 100 nM; on human plasma kallikrein, 17.8 nM.

Regarding `NC(=O)c1cc(-c2cnc([C@@H]3CC[C@@H]4CC(c5c(-n6cnnn6)ccc(Cl)c5F)=CC(=O)N43)[nH]2)ccc1F` [Example 233, 5-(2-((3S,8aR)-7-(3-chloro-2-fluoro-6-(1H-tetrazol-1-yl)phenyl)-5-oxo-1,2,3,5,8,8a-hexahydroindolizin-3-yl)-1H-imidazol-5-yl)-2-fluorobenzamide], the IC50 at Factor XIa (setting [1]) is 24.2 nM; on human plasma kallikrein, 6.7 nM.

On to `NC(=O)c1cc(-c2cnc([C@@H]3CC[C@@H]4CC(c5c(-n6cnnn6)ccc(Cl)c5F)=CC(=O)N43)[nH]2)cs1` [Example 234, 4 (2-((3S,8aR)-7-(3-Chloro-2-fluoro-6-(1H-tetrazol-1-yl)phenyl)-5-oxo-1,2,3,5,8,8a-hexahydroindolizin-3-yl)-1H-imidazol-5-yl)thiophene-2-carboxamide], for which the values for the IC50 on Factor XIa (setting [1]) and on human plasma kallikrein were 1 nM and 0.6 nM, respectively.

Take `O=C1C=C(c2c(-n3cnnn3)ccc(Cl)c2F)C[C@H]2CC[C@@H](c3ncc(-c4ccc(CO)nc4Cl)[nH]3)N12` [Example 236, (3S,8aR)-7-(3-Chloro-2-fluoro-6-(1H-tetrazol-1-yl)phenyl)-3-(5-(2-chloro-6-(hydroxymethyl)pyridin-3-yl)-1H-imidazol-2-yl)-2,3,8,8a-tetrahydroindolizin-5(1H)-one]: the IC50 came out at 5.3 nM on Factor XIa (setting [1]) and 21.6 nM at human plasma kallikrein.

As for `NC(=O)c1cccc(-c2cnc([C@@H]3CC[C@@H]4CC(c5c(-n6cnnn6)ccc(Cl)c5F)=CC(=O)N43)[nH]2)c1F` [Example 237, 3-(2-((3S,8aR)-7-(3-Chloro-2-fluoro-6-(1H-tetrazol-1-yl)phenyl)-5-oxo-1,2,3,5,8,8a-hexahydroindolizin-3-yl)-1H-imidazol-5-yl)-2-fluorobenzamide], the figures for the IC50 on Factor XIa (setting [1]) and at human plasma kallikrein were 5.6 nM and 1.5 nM, respectively.

Take `O=C(Nc1cnc(C(F)(F)F)cc1-c1cnc([C@@H]2CC[C@@H]3CC(c4c(-n5cnnn5)ccc(Cl)c4F)=CC(=O)N32)[nH]1)C1CC1` [Example 241, N-[4-[2-[(3S,8aR)-7-[3-Chloro-2-fluoro-6-(tetrazol-1-yl)phenyl]-5-oxo-2,3,8,8a-tetrahydro-1H-indolizin-3-yl]-1H-imidazol-5-yl]-6-(trifluoromethyl)-3-pyridyl]cyclopropanecarboxamide]: the IC50 at Factor XIa (setting [1]) came to 3.3 nM; on human plasma kallikrein it was 14.9 nM.

Take `O=C(Nc1cnc(C(F)(F)F)cc1-c1cnc([C@@H]2CC[C@H]3CC(c4c(-n5cnnn5)ccc(Cl)c4F)=CC(=O)N32)[nH]1)C1CC1` [Example 242, N-[4 [2-[(3S,8aS)-7-[3-Chloro-2-fluoro-6-(tetrazol-1-yl)phenyl]-5-oxo-2,3,8,8a-tetrahydro-1H-indolizin-3-yl]-1H-imidazol-5-yl]-6-(trifluoromethyl)-3-pyridyl]cyclopropanecarboxamide]: the IC50 at Factor XIa (setting [1]) worked out at 10.8 nM; at human plasma kallikrein it was 18.7 nM.

With `[2H]C([2H])([2H])C(=O)Nc1cnc(C(F)(F)F)cc1-c1cnc([C@@H]2CC[C@@H]3CC(c4c(-n5cnnn5)ccc(Cl)c4F)=CC(=O)N32)[nH]1` [Example 243, N-[4-[2-[(3S,8aR)-7-[3-Chloro-2-fluoro-6-(tetrazol-1-yl)phenyl]-5-oxo-2,3,8,8a-tetrahydro-1H-indolizin-3-yl]-1H-imidazol-5-yl]-6-(trifluoromethyl)-3-pyridyl]-2,2,2-trideuterio-acetamide], the half-inhibitory concentration (IC50) at Factor XIa (5Fam-[…]-K5Tamra substrate 15 μM) turned out to be 52 nM; at human plasma kallikrein it was 653 nM.

Regarding `CC(=O)Nc1cnc(C(F)(F)F)cc1-c1cnc([C@@H]2CC[C@H]3CC(c4c(-n5cnnn5)ccc(Cl)c4F)=CC(=O)N32)[nH]1` [Example 244, N-[4 [2-[(3S,8aS)-7-[3-Chloro-2-fluoro-6-(tetrazol-1-yl)phenyl]-5-oxo-2,3,8,8a-tetrahydro-1H-indolizin-3-yl]-1H-imidazol-5-yl]-6-(trifluoromethyl)-3-pyridyl]acetamide], the results for the IC50 at Factor XIa (setting [1]) and at human plasma kallikrein were over 100 nM and 730 nM, respectively.

For the compound `CC(=O)Nc1cnc(C(F)(F)F)cc1-c1cnc([C@@H]2CC[C@@H]3CC(c4c(-n5cnnn5)ccc(Cl)c4F)=CC(=O)N32)[nH]1` [Example 245, N-[4-[2-[(3S,8aR)-7-[3-Chloro-2-fluoro-6-(tetrazol-1-yl)phenyl]-5-oxo-2,3,8,8a-tetrahydro-1H-indolizin-3-yl]-1H-imidazol-5-yl]-6-(trifluoromethyl)-3-pyridyl]acetamide], the IC50 at Factor XIa (setting [1]) worked out at 76.8 nM; on human plasma kallikrein it was 558 nM.

As for `CC(F)(F)C(=O)Nc1cnccc1-c1c[nH]c([C@@H]2CCC3CC(c4c(-n5cnnn5)ccc(Cl)c4F)=CC(=O)N32)n1` (stereo partly drawn) [Example 246, N-[4-[2-[(3S)-7-[3-Chloro-2-fluoro-6-(tetrazol-1-yl)phenyl]-5-oxo-2,3,8,8a-tetrahydro-1H-indolizin-3-yl]-1H-imidazol-4-yl]-3-pyridyl]-2,2-difluoro-propanamide], the IC50 on Factor XIa (setting [1]) came out at 1.8 nM; on human plasma kallikrein, 141 nM.

In the case of `Cn1ncc(NC(=O)C2CC2)c1-c1c[nH]c([C@@H]2CC[C@H]3CC(c4c(-n5cnnn5)ccc(Cl)c4F)=CC(=O)N32)n1` [Example 247, N-[5-[2-[(3S,8aS)-7-[3-Chloro-2-fluoro-6-(tetrazol-1-yl)phenyl]-5-oxo-2,3,8,8a-tetrahydro-1H-indolizin-3-yl]-1H-imidazol-4-yl]-1-methyl-pyrazol-4-yl]cyclopropanecarboxamide], the IC50 at Factor XIa (setting [1]) worked out at 0.7 nM; on human plasma kallikrein, 15.6 nM.

On to `O=C(Nc1ccsc1-c1c[nH]c([C@@H]2CCC3CC(c4c(-n5cnnn5)ccc(Cl)c4F)=CC(=O)N32)n1)C1CC1` (stereo partly drawn) [Example 248, N-[2-[2-[(3S)-7-[3-Chloro-2-fluoro-6-(tetrazol-1-yl)phenyl]-5-oxo-2,3,8,8a-tetrahydro-1H-indolizin-3-yl]-1H-imidazol-4-yl]-3-thienyl]cyclopropanecarboxamide], for which the IC50 on Factor XIa (setting [1]) was 1 nM; on human plasma kallikrein, 1.5 nM.

Regarding `CCOC(=O)Nc1ccncc1-c1c[nH]c([C@@H]2CCC3CC(c4c(-n5cnnn5)ccc(Cl)c4F)=CC(=O)N32)n1` (stereo partly drawn) [Example 251, Ethyl N-[3-[2-[(3S)-7-[3-chloro-2-fluoro-6-(tetrazol-1-yl)phenyl]-5-oxo-2,3,8,8a-tetrahydro-1H-indolizin-3-yl]-1H-imidazol-4-yl]-4-pyridyl]carbamate], the figures for the IC50 on Factor XIa (setting [1]) and on human plasma kallikrein were 32.2 nM and 226 nM, respectively.
